The structures appear in SMILES notation.

As usually defined, the CC50 is the concentration that lowers cell viability or growth by half. One may read the EC50 as the midpoint of the concentration-response curve.

The nature of data set [1]: in vitro. The class given is cell-based. Conditions: African green monkey. As to the method:
(§1) The antiviral activity of the compounds of the invention was tested against DENV-1 strain TC974#666 (NCPV), DENV-2 strain 16681, DENV-3 strain H87 (NCPV) and DENV-4 strains H241 (NCPV) and EDEN (SG/06K2270DK1/2005; GenBank accession number QG398256) in a RT-qPCR assay. Therefore, Vero cells were infected with either DENV-1, or -2, or -3, or -4 in the presence or absence of test compounds. At day 3 post-infection, the cells were lysed and cell lysates were used to prepare cDNA of both a viral target (the 3′UTR of DENV; table 2) and a cellular reference gene (β-actin, table 2). Subsequently, a duplex real time PCR was performed on a Lightcycler480 instrument. The generated Cp value is inversely proportional to the amount of RNA expression of these targets. Inhibition of DENV replication by a test compound result in a shift of Cp's for the 3′UTR gene. On the other hand, if a test compound is toxic to the cells, a similar effect on β-actin expression will be observed. The comparative ΔΔCp method is used to calculate EC50, which is based on the relative gene expression of the target gene (3′UTR) normalized with the cellular housekeeping gene (β-actin). In addition, CC50 values were determined based on the Cp values acquired for the housekeeping gene β-actin.
(§2) The culture medium consisted of minimal essential medium supplemented with 2% of heat-inactivated fetal calf serum, 0.04% gentamycin (50 mg/mL) and 2 mM of L-glutamine. Vero cells, obtained from ECACC, were suspended in culture medium and 75 μL/well was added in 96-well plates (10000 cells/well), which already contain the antiviral compounds. Typically, these plates contain a 4-fold serial dilution of 9 dilution steps of the test compound at 200 times the final concentration in 100% DMSO (500 nL; final concentration range: 25 μM-0.00038 μM). In addition, each plate contains wells which are assigned as virus controls (containing cells and virus in the absence of compound) and cell controls (containing cells in the absence of virus and compound). Once the cells were added in the plates, the plates were incubated in a fully humidified incubator (37° C., 5% CO2) until the next day. Then, DENV-1 strain TC974#666, DENV-2 strain 16681, DENV-3 strain H87 or DENV-4 strains H241 or EDEN were added. […] In parallel, 25 μL of culture medium was added to the cell controls. Next, the plates were incubated for 3 days in a fully humidified incubator (37° C., 5% CO2). After 3 days, the supernatant was removed from the wells and the cells were washed twice with ice-cold PBS (˜100 μL). The cell pellets within the 96-well plates were stored at −80° C. for at least 1 day. Next, RNA was extracted using the Cells-to-CT™ lysis kit, according to the manufacture's guideline (Applied Biosystems). The cell lysates can be stored at −80° C. or immediately used in the reverse transcription step.
(§3) Using the LightCycler software and an in-house LIMS system, dose response curves for each compound were calculated and the half maximal effective concentration (EC50) and the half maximal cytotoxic concentration (CC50) were determined (Tables 6-9).

Data set [2] deals with DENV-2 16681 strain labeled with eGFP. Description: DENV-2 antiviral assay (eGFP fluorescence, Vero cells). The conditions noted are these: DENV-2 16681 eGFP, MOI 0.5, 3 days. Format: cell-based, Dengue virus. As to the method: The antiviral activity of all the compounds of the invention was tested against DENV-2 16681 strain which was labeled with enhanced green fluorescent protein (eGPF). The culture medium consists of minimal essential medium supplemented with 2% of heat-inactivated fetal calf serum, 0.04% gentamycin (50 mg/mL) and 2 mM of L-glutamine. Vero cells, obtained from ECACC, were suspended in culture medium and 25 μL was added to 384-well plates (2500 cells/well), which already contain the antiviral compounds. Typically, these plates contain a 4-fold serial dilution of 9 dilution steps of the test compound at 200 times the final concentration in 100% DMSO (200 nL). In addition, each compound concentration is tested in quadruplicate (final concentration range: 25 μM-0.00038 μM). Finally, each plate contains wells which are assigned as virus controls (containing cells and virus in the absence of compound), cell controls (containing cells in the absence of virus and compound) and medium controls (containing medium in the absence of cells, virus and compounds). To the wells assigned as medium control, 25 μL of culture medium was added instead of Vero cells. Once the cells were added to the plates, the plates were incubated for 30 minutes at room temperature to allow the cells to distribute evenly within the wells. Next, the plates were incubated in a fully humidified incubator (37° C., 5% CO2) until the next day. Then, DENV-2 strain 16681, labeled with eGFP, was added at a multiplicity of infection (MOI) of 0.5. Therefore, 15 μL of virus suspension was added to all the wells containing test compound and to the wells assigned as virus control. In parallel, 15 μL of culture medium was added to the medium and cell controls. Next, the plates were incubated for 3 days in a fully humidified incubator (37° C., 5% CO2). At the day of the read out, the eGFP fluorescence was measured using an automated fluorescence microscope at 488 nm (blue laser). Using an in-house LIMS system, inhibition dose response curves for each compound were calculated and the half maximal effective concentration (EC50) was determined. Therefore, the percent inhibition (I) for every test concentration is calculated using the following formula: I=100*(ST−SCC)/(SVC−SCC); ST, SCC and SVC are the amount of eGFP signal in the test compound, cell control and virus control wells, respectively. The EC50 represents the concentration of a compound at which the virus replication is inhibited with 50%, as measured by a 50% reduction of the eGFP fluorescent intensity compared to the virus control. The EC50 is calculated using linear interpolation (Table 1).

In data set [3] the test system is DENV-4 strain EDEN (SG/06K2270DK1/2005). The data set is described as follows: Tetravalent RT-qPCR assay Protocol A, serotype 4 EDEN. Format: cell-based. Conditions: Dengue virus, DENV4, 72 h, RT-qPCR serotype 4 EDEN, Vero cells, 3 days. As to the method:
as §1, §2
(§4) In preparation of the reverse transcription step, mix A (table 3A) was prepared and 7.57 μL/well was dispensed in a 96-well plate. After addition of 5 μL of the cell lysates, a five minute denaturation step at 75° C. was performed (table 3B). Afterwards, 7.43 μL of mix B was added (table 3C) and the reverse transcription step was initiated (table 3D) to generate cDNA.
(§5) Finally, a RT-qPCR mix was prepared, mix C (table 4A), dispensed in 96-well LightCycler qPCR plates to which 3 μL of cDNA was added and the qPCR was performed according to the conditions in table 4B on a LightCycler 480.
as §3
(In general: In qPCR the cycle at which signal appears reflects the starting amount.)

Data set [4] relates to DENV-3 strain H87. The data set is described as follows: Tetravalent RT-qPCR assay Protocol A, serotype 3. Conditions: Dengue virus, DENV3, 72 h, RT-qPCR serotype 3 H87, Vero cells, 3 days. The class given is cell-based. Here is the method: as §1, §2, §4, §5, §3

As for `COc1cc(NC(C(=O)c2c[nH]c3cc(OC)c(F)cc23)c2ccc(Cl)cc2OC)cc(OCCO)c1` (single isomer, unassigned) [Compound 7A, 2-(4-chloro-2-methoxyphenyl)-1-(5-fluoro-6-methoxy-1H-indol-3-yl)-2-((3-(2-hydroxyethoxy)-5-methoxyphenyl)amino)ethanone], half-maximal cytotoxicity in data set [1] (CC50 at 3 days) was put at 4600 nM. Also, the EC50 in data set [2] amounted to 1.1 nM; in data set [3], 6.6 nM; in data set [4], 70 nM.

`COc1cc(NC(C(=O)c2c[nH]c3c(F)cc(C)cc23)c2ccc(Cl)cc2OC)cc(OCCO)c1` (single isomer, unassigned) [Compound 10A, 2-(4-chloro-2-methoxyphenyl)-1-(7-fluoro-5-methyl-1H-indol-3-yl)-2-((3-(2-hydroxyethoxy)-5-methoxyphenyl)amino)ethanone]: the CC50 at 3 days in data set [1] worked out at 4100 nM. Also, the EC50 in data set [2] was 3.2 nM; in data set [3], 8.6 nM; in data set [4] it was 70 nM.

Consider `COc1cc(NC(C(=O)c2c[nH]c3c(C)c(Cl)ccc23)c2ccc(Cl)cc2OC)cc(OCCO)c1` (single isomer, unassigned) [Compound 3A, 2-(4-chloro-2-methoxyphenyl)-1-(6-chloro-7-methyl-1H-indol-3-yl)-2-((3-(2-hydroxyethoxy)-5-methoxyphenyl)amino)ethanone], for which the midpoint of cytotoxicity in data set [1], the CC50 at 3 days, lay at 3800 nM. For the same molecule, the half-maximal effective concentration (EC50) in data set [2] stood at 0.34 nM; in data set [3], 2.9 nM; in data set [4], 36 nM.

In the case of `COc1cc(NC(C(=O)c2c[nH]c3c(C)cc(F)cc23)c2ccc(Cl)cc2OC)cc(OCCO)c1` (single isomer, unassigned) [Compound 8A, 2-(4-chloro-2-methoxyphenyl)-1-(5-fluoro-7-methyl-1H-indol-3-yl)-2-((3-(2-hydroxyethoxy)-5-methoxyphenyl)amino)ethanone], half-maximal cytotoxicity in data set [1] (CC50 at 3 days) was put at 3500 nM. Besides, the half-maximal effective concentration (EC50) in data set [2] is 1.2 nM; in data set [3], 6.5 nM; in data set [4], 76 nM.

Turning to `COc1cc(NC(C(=O)c2c[nH]c3cc(F)ccc23)c2ccc(Cl)cc2OC)cc(OCCO)c1` (single isomer, unassigned) [Compound 1A, 2-(4-chloro-2-methoxyphenyl)-1-(6-fluoro-1H-indol-3-yl)-2-((3-(2-hydroxyethoxy)-5-methoxyphenyl)amino)ethanone], the concentration giving a half-maximal response (EC50) in data set [2] amounted to 0.81 nM; in data set [3] it was 6.2 nM; in data set [4], 63 nM.

`COc1cc(NC(C(=O)c2c[nH]c3cc(OC)ccc23)c2ccc(Cl)cc2OC)cc(OCCO)c1` (single isomer, unassigned) [Compound 5A, 2-(4-chloro-2-methoxyphenyl)-2-((3-(2-hydroxyethoxy)-5-methoxyphenyl)amino)-1-(6-methoxy-1H-indol-3-yl)ethanone] came in with a CC50 at 3 days in data set [1] of 5200 nM. The EC50 in data set [2] stood at 0.84 nM; in data set [3], 4.6 nM; in data set [4], 68 nM.

For the molecule `COc1cc(NC(C(=O)c2c[nH]c3c(F)c(F)ccc23)c2ccc(Cl)cc2OC)cc(OCCO)c1` (single isomer, unassigned) [Compound 11B, 2-(4-chloro-2-methoxyphenyl)-1-(6,7-difluoro-1H-indol-3-yl)-2-((3-(2-hydroxyethoxy)-5-methoxyphenyl)amino)ethanone], the CC50 at 3 days in data set [1] came out at 3700 nM. Further, the EC50 in data set [2] turned out to be 1.2 nM; in data set [3], 9.8 nM; in data set [4] it was 70 nM.

For the molecule `COc1cc(NC(C(=O)c2c[nH]c3c(C)c(F)ccc23)c2ccc(Cl)cc2OC)cc(OCCO)c1` (single isomer, unassigned) [Compound 2A, 2-(4-chloro-2-methoxyphenyl)-1-(6-fluoro-7-methyl-1H-indol-3-yl)-2-((3-(2-hydroxyethoxy)-5-methoxyphenyl)amino)ethanone], the half-maximal effective concentration (EC50) stood at 0.81 nM in data set [2], 4.3 nM in data set [3] and 53 nM in data set [4].

In data set [1], `COc1cc(NC(C(=O)c2c[nH]c3cc(F)c(F)cc23)c2ccc(Cl)cc2OC)cc(OCCO)c1` (single isomer, unassigned) [Compound 9A, 2-(4-chloro-2-methoxyphenyl)-1-(5,6-difluoro-1H-indol-3-yl)-2-((3-(2-hydroxyethoxy)-5-methoxyphenyl)amino)ethanone] showed a half-maximal cytotoxic concentration (CC50) at 3 days of 4700 nM. The concentration for a half-maximal effect (EC50) in data set [3] came out at 4.7 nM; in data set [4], 63 nM.

Consider `COc1cc(NC(C(=O)c2c[nH]c3cc(Cl)ccc23)c2ccc(Cl)cc2OC)cc(OCCO)c1` (single isomer, unassigned) [Compound 4A, 1-(6-chloro-1H-indol-3-yl)-2-(4-chloro-2-methoxyphenyl)-2-((3-(2-hydroxyethoxy)-5-methoxyphenyl)amino)ethanone], for which the half-maximal effective concentration (EC50) in data set [2] worked out at 0.7 nM; in data set [3], 5.2 nM; in data set [4] it was 65 nM.

On to `COc1cc(NC(C(=O)c2c[nH]c3cc(OC)c(C)cc23)c2ccc(Cl)cc2OC)cc(OCCO)c1` (single isomer, unassigned) [Compound 6A, 2-(4-chloro-2-methoxyphenyl)-2-((3-(2-hydroxyethoxy)-5-methoxyphenyl)amino)-1-(6-methoxy-5-methyl-1H-indol-3-yl)ethanone], for which the concentration for a half-maximal effect (EC50) in data set [2] was found to be 0.82 nM; in data set [3], 2.9 nM; in data set [4], 26 nM.

The values are drawn from patent US9944598B2, “Mono- or di-substituted indole derivatives as dengue viral replication inhibitors” (priority 2014, dated 2018).
